Experimental data from US10745377B2, “Piperidine or piperazine linked imidazole and triazole derivatives and methods of use” (MERCK SHARP & DOHME CORP., priority 2013, dated 2020).

How the values were obtained:
Assay type in all cases: biochemical
CYP1A2 = target: T1, CYP1A2 (Homo sapiens, UniProt P05177); test: Cocktail assay for CYPs in human liver microsomes: CYP1A2 (phenacetin O-deethylation); details: human liver microsomes 0.1 mg/mL, 10 μM phenacetin, 10 min at 37° C., 6 concentrations up to 10 μM; read-out: IC50 (nM) CYP1A2
T1 construct: 0.1 mg/mL protein human liver microsomes (BD Gentest); tissue BD Gentest; host or cells: human liver microsomes
T1 sequence (P05177 1-516): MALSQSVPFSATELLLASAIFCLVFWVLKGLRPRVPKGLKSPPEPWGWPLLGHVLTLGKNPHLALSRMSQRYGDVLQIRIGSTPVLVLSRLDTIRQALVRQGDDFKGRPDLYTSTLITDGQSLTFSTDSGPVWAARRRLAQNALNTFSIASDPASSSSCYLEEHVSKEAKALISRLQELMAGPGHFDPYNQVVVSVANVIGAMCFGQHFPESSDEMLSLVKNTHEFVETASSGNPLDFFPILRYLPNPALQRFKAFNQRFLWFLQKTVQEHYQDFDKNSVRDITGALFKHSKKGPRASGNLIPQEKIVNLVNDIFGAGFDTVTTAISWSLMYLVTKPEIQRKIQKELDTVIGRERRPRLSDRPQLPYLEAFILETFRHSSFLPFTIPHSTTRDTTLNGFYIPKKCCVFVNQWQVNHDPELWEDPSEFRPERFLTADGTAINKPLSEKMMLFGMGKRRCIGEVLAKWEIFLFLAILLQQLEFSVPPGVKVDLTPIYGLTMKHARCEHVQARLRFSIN

CYP2D6 = target: T2, CYP2D6 (Homo sapiens, UniProt P10635); test: Cocktail assay for CYPs in human liver microsomes: CYP2D6 (dextromethorphan O-demethylation); details: human liver microsomes 0.1 mg/mL, 5 μM dextromethorphan, 10 min at 37° C., 6 concentrations up to 10 μM; read-out: IC50 (nM) CYP2D6
T2 construct: 0.1 mg/mL protein human liver microsomes (BD Gentest); tissue BD Gentest; host or cells: human liver microsomes

CYP3A4 = target: T3, CYP3A4 (Homo sapiens, UniProt P08684); test: Cocktail assay for CYPs in human liver microsomes: CYP3A4 (midazolam 1′-hydroxylation); details: human liver microsomes 0.1 mg/mL, 2 μM midazolam, 10 min at 37° C., 6 concentrations up to 10 μM; read-out: IC50 (nM) CYP3A4
T3 construct: 0.1 mg/mL protein human liver microsomes (BD Gentest); tissue BD Gentest; host or cells: human liver microsomes

CYP2C19 = target: T4, CYP2C19 (Homo sapiens, UniProt P33261); test: Cocktail assay for CYPs in human liver microsomes: CYP2C19 (mephenytoin 4′-hydroxylation); details: human liver microsomes 0.1 mg/mL, 30 μM mephenytoin, 10 min at 37° C., 6 concentrations up to 10 μM; read-out: IC50 (nM) CYP2C19
T4 construct: 0.1 mg/mL protein human liver microsomes (BD Gentest); tissue BD Gentest; host or cells: human liver microsomes

CYP2C9 = target: T5, CYP2C9 (Homo sapiens, UniProt P11712); test: Cocktail assay for CYPs in human liver microsomes: CYP2C9 (diclofenac 4′-hydroxylation); details: human liver microsomes 0.1 mg/mL, 5 μM diclofenac, 10 min at 37° C., 6 concentrations up to 10 μM; read-out: IC50 (nM) CYP2C9
T5 construct: 0.1 mg/mL protein human liver microsomes (BD Gentest); tissue BD Gentest; host or cells: human liver microsomes
T5 sequence (P11712 whole entry): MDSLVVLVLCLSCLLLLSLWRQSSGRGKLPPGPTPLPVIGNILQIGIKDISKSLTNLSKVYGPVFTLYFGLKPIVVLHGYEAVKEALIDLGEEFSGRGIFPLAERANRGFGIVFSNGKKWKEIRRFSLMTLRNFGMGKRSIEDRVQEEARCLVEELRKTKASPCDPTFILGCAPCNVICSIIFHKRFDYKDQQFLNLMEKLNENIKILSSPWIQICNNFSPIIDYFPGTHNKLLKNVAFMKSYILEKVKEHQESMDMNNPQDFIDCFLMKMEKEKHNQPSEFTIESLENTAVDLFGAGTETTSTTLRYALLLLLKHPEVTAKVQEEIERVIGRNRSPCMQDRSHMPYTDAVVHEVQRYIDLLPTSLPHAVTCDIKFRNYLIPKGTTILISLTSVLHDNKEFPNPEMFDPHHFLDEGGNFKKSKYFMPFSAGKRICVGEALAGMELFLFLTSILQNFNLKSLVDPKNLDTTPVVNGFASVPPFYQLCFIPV

T4 sequence (P33261 whole entry): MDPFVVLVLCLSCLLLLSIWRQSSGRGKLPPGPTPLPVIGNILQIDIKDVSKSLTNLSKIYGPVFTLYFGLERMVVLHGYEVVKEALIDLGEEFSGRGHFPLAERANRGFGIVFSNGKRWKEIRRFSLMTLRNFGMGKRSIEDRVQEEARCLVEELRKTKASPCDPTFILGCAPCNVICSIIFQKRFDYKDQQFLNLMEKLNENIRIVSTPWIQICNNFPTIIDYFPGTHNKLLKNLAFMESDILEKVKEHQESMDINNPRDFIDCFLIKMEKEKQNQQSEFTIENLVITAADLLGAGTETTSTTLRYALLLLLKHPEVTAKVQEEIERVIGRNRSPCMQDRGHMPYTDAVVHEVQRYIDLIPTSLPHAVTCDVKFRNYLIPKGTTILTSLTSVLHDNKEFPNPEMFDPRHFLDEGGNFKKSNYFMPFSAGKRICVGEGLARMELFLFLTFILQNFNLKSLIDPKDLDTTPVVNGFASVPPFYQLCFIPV
T3 sequence (P08684 whole entry): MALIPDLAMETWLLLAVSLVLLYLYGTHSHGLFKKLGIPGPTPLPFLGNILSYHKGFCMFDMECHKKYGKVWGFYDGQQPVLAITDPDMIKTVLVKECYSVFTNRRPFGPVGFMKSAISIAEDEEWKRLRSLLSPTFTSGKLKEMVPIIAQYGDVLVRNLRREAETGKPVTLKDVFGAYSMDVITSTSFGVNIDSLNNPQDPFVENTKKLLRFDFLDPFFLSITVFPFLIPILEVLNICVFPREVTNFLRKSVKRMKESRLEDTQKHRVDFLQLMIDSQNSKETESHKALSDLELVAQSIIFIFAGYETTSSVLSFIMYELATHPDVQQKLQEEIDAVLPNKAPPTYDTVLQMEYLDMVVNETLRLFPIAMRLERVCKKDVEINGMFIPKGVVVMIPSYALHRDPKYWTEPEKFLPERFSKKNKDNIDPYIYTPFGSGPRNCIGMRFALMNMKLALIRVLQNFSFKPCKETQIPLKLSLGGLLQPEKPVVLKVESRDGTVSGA
T2 sequence (P10635 whole entry): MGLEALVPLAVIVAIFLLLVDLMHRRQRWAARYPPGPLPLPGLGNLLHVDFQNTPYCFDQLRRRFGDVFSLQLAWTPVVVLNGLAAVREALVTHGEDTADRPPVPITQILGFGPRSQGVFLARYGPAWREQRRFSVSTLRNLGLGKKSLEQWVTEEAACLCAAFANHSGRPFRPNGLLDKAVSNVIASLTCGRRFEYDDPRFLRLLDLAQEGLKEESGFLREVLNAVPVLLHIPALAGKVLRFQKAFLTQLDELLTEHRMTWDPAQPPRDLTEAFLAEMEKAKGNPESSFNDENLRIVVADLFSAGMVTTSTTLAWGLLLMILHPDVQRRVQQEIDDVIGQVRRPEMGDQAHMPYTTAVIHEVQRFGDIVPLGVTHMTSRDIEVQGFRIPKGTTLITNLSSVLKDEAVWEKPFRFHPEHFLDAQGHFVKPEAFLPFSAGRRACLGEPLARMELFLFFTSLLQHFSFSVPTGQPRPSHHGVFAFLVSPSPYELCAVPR

SMILES | IC50 (CYP1A2) [nM] | IC50 (CYP2D6) [nM] | IC50 (CYP3A4) [nM] | IC50 (CYP2C19) [nM] | IC50 (CYP2C9) [nM]
CC(c1ccccc1-c1ccc(F)cc1)n1cncc1CN1CCCNC(=O)C1 (centres unmarked) [Compound 18, 4-((1-(1-(4′-fluoro-[1,1′-biphenyl]-2-yl)ethyl)-1H-imidazol-5-yl)methyl)-1,4-diazepan-2-one] | > 10000 | > 10000 | 29 | 4790 | > 10000
C[C@H](c1ccc(C#N)cc1)n1cncc1CN1CCC2(CC1)C(=O)NCN2c1ccccc1 [Compound 19, (R)-4-(1-(5-((4-oxo-1-phenyl-1,3,8-triazaspiro[4.5]decan-8-yl)methyl)-1H-imidazol-1-yl)ethyl) benzonitrile] | > 10000 | 9970 | 50 | 2420 | 1660
CC(c1ccccc1-c1ccc(F)cc1)n1cncc1CN1CCS(=O)(=O)CC1 (centres unmarked) [Compound 20, 4-((1-(1-(4′-fluoro-[1,1′-biphenyl]-2-yl)ethyl)-1H-imidazol-5-yl)methyl) thiomorpholin 1,1-dioxide] | > 10000 | > 10000 | 35 | 9910 | > 10000
C[C@H](c1ccc(C#N)cc1)n1cncc1CN1CCC(c2nc3ccccc3o2)CC1 [Compound 21, (R)-4-(1-(5-((4-(benzo[d]oxazol-2-yl)piperidin-1-yl)methyl)-1H-imidazol-1-yl)ethyl) benzonitrile] | > 10000 | 7520 | 35 | 8700 | 4080
C[C@H](c1ccc(C#N)cc1)n1cncc1CN1CCC(c2nc3ccccc3s2)CC1 [Compound 22, (R)-4-(1-(5-((4-(benzo[d]thiazol-2-yl)piperidin-1-yl)methyl)-1H-imidazol-1-yl)ethyl) benzonitrile] | > 10000 | 3210 | 26 | 4690 | 1760
C[C@H](c1ccc(F)cc1)n1cncc1CN1CCN(c2nc3ccccc3o2)CC1 [Compound 23, (R)-2-(4-((1-(1-(4-fluorophenyl)ethyl)-1H-imidazol-5-yl)methyl)piperazin-1-yl)benzo[d]oxazole] | > 10000 | 2920 | 7 | 3160 | 4370
C[C@H](c1ccc(C#N)cc1)n1cncc1CN1CCN(c2nc3ccccc3o2)CC1 [Compound 24, (R)-4-(1-(5-((4-(benzo[d]oxazol-2-yl)piperazin-1-yl)methyl)-1H-imidazol-1-yl)ethyl) benzonitrile] | > 10000 | 3080 | 11 | 2260 | 3430
N#Cc1ccc(C2(n3cncc3CN3CCN(c4nc5ccccc5o4)CC3)CC2)cc1 [Compound 25, 4-(1-(5-((4-(benzo[d]oxazol-2-yl)piperazin-1-yl)methyl)-1H-imidazol-1-yl)cyclopropyl) benzonitrile] | > 10000 | 2910 | 28 | > 10000 | 9590
CC(C)OCCn1cncc1CN1CCN(c2nc3ccccc3o2)CC1 [Compound 26, 2-(4-((1-(2-isopropoxyethyl)-1H-imidazol-5-yl)methyl)piperazin-1-yl)benzo[d]oxazole] | > 10000 | 1040 | 21 | > 10000 | > 10000
CC(C)C(C)n1cncc1CN1CCN(c2nc3ccccc3o2)CC1 (centres unmarked) [Compound 27, 2-(4-((1-(3-methylbutan-2-yl)-1H-imidazol-5-yl)methyl)piperazin-1-yl)benzo[d]oxazole] | > 10000 | 1760 | 9 | > 10000 | > 10000
C[C@H](c1ccc(C#N)cc1)n1cncc1CN1CCN(c2nc3cccc(F)c3o2)CC1 [Compound 28, (R)-4-(1-(5-((4-(7-fluorobenzo[d]oxazol-2-yl)piperazin-1-yl)methyl)-1H-imidazol-1-yl)ethyl)benzonitrile] | > 10000 | 1110 | 10 | 3570 | 3870
Cc1cccc2nc(N3CCN(Cc4cncn4[C@H](C)c4ccc(C#N)cc4)CC3)oc12 [Compound 29, (R)-4-(1-(5-((4-(7-methylbenzo[d]oxazol-2-yl)piperazin-1-yl)methyl)-1H-imidazol-1-yl)ethyl)benzonitrile] | > 10000 | 2770 | 20 | 4970 | 2490
C[C@H](c1ccc(C#N)cc1)n1cncc1CN1CCN(c2nc3ccc(F)cc3o2)CC1 [Compound 30, (R)-4-(1-(5-((4-(6-fluorobenzo[d]oxazol-2-yl)piperazin-1-yl)methyl)-1H-imidazol-1-yl)ethyl)benzonitrile] | > 10000 | 1620 | 7 | 8400 | 5550

Other lines, results leading:

IC50 (CYP1A2) [nM] | IC50 (CYP2D6) [nM] | IC50 (CYP3A4) [nM] | IC50 (CYP2C19) [nM] | IC50 (CYP2C9) [nM] | SMILES
> 10000 | 2870 | 7 | 3740 | 2320 | C[C@H](c1ccc(C#N)cc1)n1cncc1CN1CCN(c2nc3ccc(F)c(F)c3o2)CC1 [Compound 31, (R)-4-(1-(5-((4-(6,7-difluorobenzo[d]oxazol-2-yl)piperazin-1-yl)methyl)-1H-imidazol-1-yl)ethyl) benzonitrile]
> 10000 | > 10000 | 24 | > 10000 | > 10000 | CC(C1CCOCC1)n1cncc1CN1CCN(c2nc3ccccc3o2)CC1 (centres unmarked) [Compound 32, 2-(4-((1-(1-(tetra-hydro-2H-pyran-4-yl)ethyl)-1H-imidazol-5-yl)methyl)piperazin-1-yl)benzo[d] oxazole]
> 10000 | 2090 | 35 | ≥ 10000 | 6520 | c1ccc(CCn2cncc2CN2CCN(c3nc4ccccc4o3)CC2)nc1 [Compound 33, 2-(4-((1-(2-(pyridin-2-yl)ethyl)-1H-imidazol-5-yl)methyl)piperazin-1-yl)benzo[d] oxazole]
> 10000 | 2520 | 8 | ≥ 10000 | ≥ 10000 | CC(c1ccc(S(C)(=O)=O)cc1)n1cncc1CN1CCN(c2nc3ccccc3o2)CC1 (centres unmarked) [Compound 34, 2-(4-((1-(1-(4-(methylsulfonyl)phenyl)ethyl)-1H-imidazol-5-yl)methyl)piperazin-1-yl)benzo [d]oxazole]
> 10000 | > 10000 | 4 | > 10000 | > 10000 | CC(C1CCOCC1)n1cncc1CN1CCN(c2nc3ccc(F)c(F)c3o2)CC1 (centres unmarked) [Compound 35, 6,7-difluoro-2-(4-((1-(1-(tetrahydro-2H-pyran-4-yl)ethyl)-1H-imidazol-5-yl)methyl)piperazin-1-yl) benzo[d]oxazole]
> 10000 | 1720 | 45 | 4260 | 6980 | CC(Cn1cncc1CN1CCN(c2nc3ccccc3o2)CC1)C(F)(F)F (centres unmarked) [Compound 36, 2-(4-((1-(3,3,3-trifluoro-2-methylpropyl)-1H-imidazol-5-yl)methyl)piperazin-1-yl)benzo[d]oxazole]
> 10000 | 1410 | 8 | 5380 | 4360 | Fc1ccc(CCn2cncc2CN2CCN(c3nc4ccccc4o3)CC2)cc1 [Compound 37, 2-(4-((1-(4-fluorophenethyl)-1H-imidazol-5-yl)methyl)piperazin-1-yl)benzo[d]oxazole]
> 10000 | 3690 | 31 | 4720 | 6470 | COc1ccc2nc(N3CCN(Cc4cncn4[C@H](C)c4ccc(C#N)cc4)CC3)sc2c1 [Compound 38, (R)-4-(1-(5-((4-(6-methoxybenzo[d]thiazol-2-yl)piperazin-1-yl)methyl)-1H-imidazol-1-yl)ethyl)benzonitrile]
> 10000 | 1580 | 23 | > 10000 | > 10000 | C[C@H](c1ccc(C#N)cc1)n1cncc1CN1CCN(c2nc3ccccc3[nH]2)CC1 [Compound 39, (R)-4-(1-(5-((4-(1H-benzo[d]imidazol-2-yl)piperazin-1-yl)methyl)-1H-imidazol-1-yl)ethyl)benzonitrile]
